Our source for the TGI values is PubChem BioAssay (NCI).

Molecules are shown by their SMILES.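 In this assay, cells in 96-well plates receive the compound at five concentrations for 48 hours. Endpoints are linearly interpolated between the surrounding concentrations. At the TGI there is no net growth.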 A value given as a limit tells only on which side of the number the result lay.

Among the test systems are BT-549 breast; A498 renal; HCC-2998 colon; SK-MEL-28 melanoma; DU-145 prostate; UACC-257 melanoma; MDA-MB-435; UACC-62 melanoma; IGROV1 ovarian; SK-MEL-2 melanoma.
What all share (test): inhibition of tumour cell growth, NCI panel, 48 h

Regarding `Clc1cccc(NN=Nc2ccc(-c3nc4ccccc4s3)cc2)c1`, the TGI in the experiment on BT-549 breast, with A498 renal, with HCC-2998 colon, with SK-MEL-28 melanoma, in the experiment with DU-145 prostate and with UACC-257 melanoma was above 100 µM each time. In addition, the TGI was above 100 µM with MDA-MB-435, 51.8 µM in the experiment on UACC-62 melanoma, 54.5 µM in the experiment on IGROV1 ovarian and 48.1 µM in the experiment with SK-MEL-2 melanoma.
Take `Cc1oc2c(c1C)S(=O)(=O)C(C#N)=C(N(C)C)N2`: the TGI in the experiment on BT-549 breast, in the experiment on A498 renal, with HCC-2998 colon, with SK-MEL-28 melanoma, with DU-145 prostate and with UACC-257 melanoma was above 100 µM each time. In addition, the TGI in the experiment on MDA-MB-435, with UACC-62 melanoma, in the experiment on IGROV1 ovarian and in the experiment with SK-MEL-2 melanoma was above 100 µM in each case.
Turning to `Cc1cc(S(=O)(=O)Nc2nc3ccccc3nc2-c2ccc(Cl)cc2)c(S)cc1Cl`, the TGI in the experiment on BT-549 breast stood at 50.6 µM; in the experiment with A498 renal it was 30.7 µM; in the experiment with HCC-2998 colon, 29.1 µM; in the experiment with SK-MEL-28 melanoma, 31 µM; in the experiment on DU-145 prostate, 29.9 µM; in the experiment on UACC-257 melanoma, 44.2 µM. Besides, the TGI was found to be 34.5 µM with MDA-MB-435, 25.4 µM in the experiment with UACC-62 melanoma, 24.9 µM with IGROV1 ovarian and 29.2 µM with SK-MEL-2 melanoma.
As to `COc1ccc(C2C(C#N)=C(S)N(C3OC(COC(C)=O)C(OC(C)=O)C(OC(C)=O)C3OC(C)=O)C(c3ccccc3)=C2C(C)=O)cc1` (stereo not given), the TGI in the experiment on BT-549 breast, with A498 renal, in the experiment with HCC-2998 colon, in the experiment with SK-MEL-28 melanoma, with DU-145 prostate and with UACC-257 melanoma was above 100 µM each time. Further, the TGI in the experiment with MDA-MB-435, in the experiment on UACC-62 melanoma, in the experiment on IGROV1 ovarian and with SK-MEL-2 melanoma was above 100 µM each time.
With `O=C(/C=C/c1cccc(Oc2ccccc2)c1)NCc1ccc(C(=O)NCCc2ccccc2)cc1`, the TGI in the experiment on BT-549 breast, in the experiment with A498 renal, in the experiment on HCC-2998 colon, in the experiment with SK-MEL-28 melanoma, with DU-145 prostate and in the experiment with UACC-257 melanoma was above 100 µM in each case. For the same molecule, the TGI in the experiment on MDA-MB-435, with UACC-62 melanoma, with IGROV1 ovarian and with SK-MEL-2 melanoma was above 100 µM in each case.
On to `NC1=Nc2cc(Cl)ccc2Sc2nc3ccccc3n21`, for which the TGI with BT-549 breast, in the experiment on A498 renal, with HCC-2998 colon, in the experiment with SK-MEL-28 melanoma, in the experiment with DU-145 prostate and in the experiment on UACC-257 melanoma was above 100 µM each time. Further, the TGI with MDA-MB-435, with UACC-62 melanoma, in the experiment on IGROV1 ovarian and in the experiment with SK-MEL-2 melanoma was above 100 µM each time.
For `COC1=CC(=O)CC(C)C12Oc1c(Cl)c(OC)cc(OC)c1C2=O` (stereo not given), the TGI was above 89 µM with BT-549 breast; above 93.8 µM in the experiment with A498 renal; above 100 µM in the experiment on HCC-2998 colon; above 100 µM in the experiment with SK-MEL-28 melanoma; above 100 µM in the experiment with DU-145 prostate; above 100 µM in the experiment with UACC-257 melanoma. Also, the TGI in the experiment with MDA-MB-435 was 6.42 µM; in the experiment on UACC-62 melanoma it was above 100 µM; in the experiment on IGROV1 ovarian, above 100 µM; in the experiment on SK-MEL-2 melanoma it was above 100 µM.
As for `Nc1nc(Cl)cc(NC2(CO)CCC2)n1`, the TGI with BT-549 breast, with A498 renal, with HCC-2998 colon, with SK-MEL-28 melanoma, in the experiment on DU-145 prostate and in the experiment on UACC-257 melanoma was above 100 µM in each case. Further, the TGI in the experiment with MDA-MB-435, with UACC-62 melanoma, in the experiment with IGROV1 ovarian and in the experiment on SK-MEL-2 melanoma was above 100 µM throughout.
In the case of `Cc1csc2c1-n1cccc1C2=O`, the TGI with BT-549 breast, in the experiment on A498 renal, with HCC-2998 colon, with SK-MEL-28 melanoma, with DU-145 prostate and in the experiment on UACC-257 melanoma was above 100 µM in each case. Besides, the TGI with MDA-MB-435, in the experiment with UACC-62 melanoma, in the experiment with IGROV1 ovarian and with SK-MEL-2 melanoma was above 100 µM each time.
Take `Cc1c(N=Nc2ccccc2)c(C)n(C2OC(CO)C(O)C(O)C2O)c(=S)c1C#N` (stereo not given): the TGI was 45.8 µM in the experiment on BT-549 breast; 72.5 µM in the experiment with A498 renal; 59.3 µM in the experiment with HCC-2998 colon; above 100 µM with SK-MEL-28 melanoma; above 100 µM in the experiment on DU-145 prostate; above 100 µM in the experiment on UACC-257 melanoma. Further, the TGI is 71.4 µM with MDA-MB-435, 18.9 µM in the experiment with UACC-62 melanoma, above 100 µM with IGROV1 ovarian and 90.2 µM in the experiment with SK-MEL-2 melanoma.
With `C=C1CC(Cn2ccc(=O)[nH]c2=O)(c2ccc(Cl)cc2)OC1=O` (stereo not given), the TGI with BT-549 breast turned out to be 18 µM; with A498 renal, 32.4 µM; with HCC-2998 colon, 31.2 µM; in the experiment with SK-MEL-28 melanoma, 13.7 µM; in the experiment with DU-145 prostate it was 23.2 µM; in the experiment with UACC-257 melanoma, 12.4 µM. For the same molecule, the TGI turned out to be 21 µM in the experiment on MDA-MB-435, 13.4 µM in the experiment with UACC-62 melanoma, 9.98 µM in the experiment with IGROV1 ovarian and 22.5 µM in the experiment on SK-MEL-2 melanoma.
Regarding `COc1cc2c3c(n(C)c(=O)c2cc1OC)-c1cc2c(cc1/C3=C\CCCI)OCO2`, the TGI was above 100 µM in the experiment on BT-549 breast; above 93.3 µM with A498 renal; above 100 µM with HCC-2998 colon; above 100 µM in the experiment with SK-MEL-28 melanoma; above 100 µM in the experiment with DU-145 prostate; above 100 µM in the experiment on UACC-257 melanoma. The TGI with MDA-MB-435 was above 100 µM; with UACC-62 melanoma, above 100 µM; with IGROV1 ovarian it was above 46.7 µM; in the experiment on SK-MEL-2 melanoma, above 100 µM.
Turning to `CCCCCCCCCCCCCCC(O)C[N+](C)(CCO)CCO` (stereo not given), the TGI with BT-549 breast is 10.8 µM; with A498 renal it was 22.6 µM; with HCC-2998 colon, 3.51 µM; in the experiment on SK-MEL-28 melanoma, 22.4 µM; in the experiment on DU-145 prostate, 23.6 µM; with UACC-257 melanoma, 26.7 µM. The TGI came to 21.3 µM with MDA-MB-435, 11.1 µM in the experiment with UACC-62 melanoma, 3.14 µM in the experiment with IGROV1 ovarian and 27.5 µM with SK-MEL-2 melanoma.
